In patent US20230086703A1, “N-(4-(5-chloropyridin-3-yl)phenyl)-2-(2-(cyclopropanesulfonamido)pyrimidin-4-yl) butanamide derivatives and related compounds as human CTPS1 inhibitors for the treatment of proliferative diseases” (Step Pharma S.A.S., priority 2019, published 2023) one finds IC50 data, which are given here for 27 compounds.

Values joined by “and” are separate entries in the source; they are usually repeats but may differ in a detail not shown here. Equal entries are not always repeated. Bounds are passed on as bounds.

As usually defined, the IC50 is the midpoint of a concentration-inhibition curve.

The assay concerns the target T1, human CTPS1 (Homo sapiens, UniProt P17812).
T1 construct: FLAG (with GG linker); His8 (with GG linker); purchased Proteros biostructures GmbH
T1 sequence (P17812 1-591): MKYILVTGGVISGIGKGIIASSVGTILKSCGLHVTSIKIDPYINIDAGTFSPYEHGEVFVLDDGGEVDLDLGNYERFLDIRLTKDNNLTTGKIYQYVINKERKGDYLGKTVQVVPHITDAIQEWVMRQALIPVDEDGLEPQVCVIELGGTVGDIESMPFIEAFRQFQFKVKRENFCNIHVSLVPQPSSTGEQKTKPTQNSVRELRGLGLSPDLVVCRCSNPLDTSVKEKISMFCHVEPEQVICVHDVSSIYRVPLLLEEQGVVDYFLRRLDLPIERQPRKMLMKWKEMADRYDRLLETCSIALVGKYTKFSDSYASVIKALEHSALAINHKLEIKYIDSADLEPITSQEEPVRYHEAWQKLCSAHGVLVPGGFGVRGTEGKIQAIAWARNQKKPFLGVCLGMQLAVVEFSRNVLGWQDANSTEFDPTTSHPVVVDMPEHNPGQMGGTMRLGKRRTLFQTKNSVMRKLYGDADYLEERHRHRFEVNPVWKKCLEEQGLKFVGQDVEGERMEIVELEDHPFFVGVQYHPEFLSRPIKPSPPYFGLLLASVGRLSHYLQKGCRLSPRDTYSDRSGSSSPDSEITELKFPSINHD
The experiment in a line: Human CTPS1 enzyme inhibition, ADP-Glo Max assay. It counts as biochemical. The following applies: ADP-Glo Max assay; Table 10; read-out: Human CTPS1 Enzyme Inhibition, IC50 grouped by potency range (CTPS1). The method, then: The enzyme inhibitory activities of compounds invented against the target of interest were determined using the ADP-Glo™ Max assay (Promega, UK). Assays for human CTPS1 were performed in 1× assay buffer containing 50 mM Tris, 10 mM MgCl2, 0.01% Tween-20, pH to 8.0 accordingly. Finally, immediately before use, L-cysteine was added to the 1× assay buffer to a final concentration of 2 mM. All reagents are from Sigma-Aldrich unless specified otherwise.
3× human CTPS1 protein was prepared in 1× assay buffer to the final working protein concentration required for the reaction. A 2 uL volume per well of 3× human CTPS1 protein was mixed with 2 uL per well of 3× test compound (compound prepared in 1× assay buffer to an appropriate final 3× compound concentration respective to the concentration response curve designed for the compounds under test) for 10 minutes at 25° C. […] ADP-Glo™ Max reagent was added for 60 minutes (6 μL per well) and subsequently ADP-Glo™ Max development reagent was added for 60 minutes (12 uL per well) prior to signal detection in a microplate reader (EnVision® Multilabel Reader, Perkin Elmer). Following each reagent addition over the course of the assay, assay plates were pulse centrifuged for 30 seconds at 500 rpm.
In all cases, the enzyme converts ATP to ADP and the ADP-Glo™ Max reagent subsequently depletes any remaining endogenous ATP in the reaction system. The ADP-Glo™ Max detection reagent converts the ADP that has been enzymatically produced back into ATP and using ATP as a substrate together with luciferin for the enzyme luciferase, light is generated which produces a detectable luminescence. […] The percentage inhibition produced by each concentration of compound was calculated using the equation shown below: […]
(In general: ADP-Glo first removes unused ATP, then detects ADP through luciferase.)
Regarding `CC(C)(C(=O)Nc1ccc(-c2cncc(Cl)n2)cn1)c1csc(NS(=O)(=O)C2CC2)n1` [T262, N-(5-(6-chloropyrazin-2-yl)pyridin-2-yl)-2-(2-(cyclopropanesulfonamido)thiazol-4-yl)-2-methylpropanamide], the IC50 is under 0.1 µM. As for `CC(C)(C(=O)Nc1ccc(-c2cncc(CO)n2)cc1)c1csc(NS(=O)(=O)C2CC2)n1` [T283, 2-(2-(cyclopropanesulfonamido)thiazol-4-yl)-N-(4-(6-(hydroxymethyl)pyrazin-2-yl)phenyl)-2-methylpropanamide], the IC50 fell in the range of 0.1 to 1 µM. Under `COC(C(=O)Nc1ccc(-c2cncc(C(F)(F)F)n2)cc1F)c1csc(NS(=O)(=O)C2CC2)n1` (single isomer, unassigned) [T459, 2-(2-(cyclopropanesulfonamido)thiazol-4-yl)-N-(2-fluoro-4-(6-(trifluoromethyl)pyrazin-2-yl)phenyl)-2-methoxyacetamide] stands under 0.1 µM. Under `CC(C)(C(=O)Nc1ccc(-c2cccnc2)cc1)c1csc(NS(=O)(=O)C2(C)CC2)n1` [T299, 2-methyl-2-(2-((1-methylcyclopropane)-1-sulfonamido)thiazol-4-yl)-N-(4-(pyridin-3-yl)phenyl)propanamide] stands 0.1 to 1 µM; under `CN(C)CCOc1cncc(-c2ccc(NC(=O)C(C)(C)c3csc(NS(=O)(=O)C4CC4)n3)cc2)n1` [T279, 2-(2-(cyclopropanesulfonamido)thiazol-4-yl)-N-(4-(6-(2-(dimethylamino)ethoxy)pyrazin-2-yl)phenyl)-2-methylpropanamide], 1 to 10 µM; under `CCOc1cncc(-c2ccc(NC(=O)C(C)(C)c3csc(NS(=O)(=O)C4(C)CC4)n3)cc2)n1` [T301, N-(4-(6-ethoxypyrazin-2-yl)phenyl)-2-methyl-2-(2-((1-methylcyclopropane)-1-sulfonamido)thiazol-4-yl)propanamide], under 0.1 µM.

Turning to `Cc1cc(Cl)cc(-c2ccc(NC(=O)C(C)(C)c3csc(NS(=O)(=O)C4CC4)n3)nc2)c1` [T231, N-(5-(3-chloro-5-methylphenyl)pyridin-2-yl)-2-(2-(cyclopropanesulfonamido)thiazol-4-yl)-2-methylpropanamide], the IC50 lay in the range of 1 to 10 µM. Under `CC(C)(C(=O)Nc1ccc(-c2cccnc2)c(F)c1)c1csc(NS(=O)(=O)C2CC2)n1` [T151, 2-(2-(cyclopropanesulfonamido)thiazol-4-yl)-N-(3-fluoro-4-(pyridin-3-yl)phenyl)-2-methylpropanamide] stands 0.1 to 1 µM; under `CC(C)(C(=O)Nc1ccc(-c2cncc(N3CCCC3)n2)cc1)c1csc(NS(=O)(=O)C2CC2)n1` [T278, 2-(2-(cyclopropanesulfonamido)thiazol-4-yl)-2-methyl-N-(4-(6-(pyrrolidin-1-yl)pyrazin-2-yl)phenyl)propanamide], under 0.1 µM. For `CCC(CC)(C(=O)Nc1ccc(-c2cccnc2)cc1F)c1csc(NS(=O)(=O)C2CC2)n1` [T121, 2-(2-(cyclopropanesulfonamido)thiazol-4-yl)-2-ethyl-N-(2-fluoro-4-(pyridin-3-yl)phenyl)butanamide] the value was under 0.1 µM.

Turning to `Cc1nccnc1-c1ccc(NC(=O)C(C)(C)c2csc(NS(=O)(=O)C3CC3)n2)cc1` [T280, 2-(2-(cyclopropanesulfonamido)thiazol-4-yl)-2-methyl-N-(4-(3-methylpyrazin-2-yl)phenyl)propanamide], the IC50 fell in the range of 1 to 10 µM. On to `CC(C)(C(=O)Nc1ccc(-c2cncc(C#N)c2)cc1)c1csc(NS(=O)(=O)C2CC2)n1` [T47, N-(4-(5-cyanopyridin-3-yl)phenyl)-2-(2-(cyclopropanesulfonamido)thiazol-4-yl)-2-methylpropanamide], for which the IC50 was under 0.1 µM. For `CC(C)(C(=O)Nc1ccc(-c2cncc(Cl)c2)cc1)c1csc(NS(=O)(=O)C2(C)CC2)n1` [T300, N-(4-(5-chloropyridin-3-yl)phenyl)-2-methyl-2-(2-((1-methylcyclopropane)-1-sulfonamido)thiazol-4-yl)propanamide] the value was 0.1 to 1 µM.

Regarding `CC(C)(C(=O)Nc1ccc(-c2cncc(OC3CCC3)n2)cn1)c1csc(NS(=O)(=O)C2CC2)n1` [T141, N-(5-(6-cyclobutoxypyrazin-2-yl)pyridin-2-yl)-2-(2-(cyclopropanesulfonamido)thiazol-4-yl)-2-methylpropanamide], the IC50 is 0.1 to 1 µM. In the case of `CC(C)CS(=O)(=O)Nc1nc(C(C)(C)C(=O)Nc2ccc(-c3cncc(C(F)(F)F)n3)cc2)cs1` [T313, 2-methyl-2-(2-((2-methylpropyl)sulfonamido)thiazol-4-yl)-N-(4-(6-(trifluoromethyl)pyrazin-2-yl)phenyl)propanamide], the IC50 is 0.1 to 1 µM. For the compound `O=C(Cc1csc(NS(=O)(=O)C2CC2)n1)Nc1ccc(-c2cncnc2)nc1` [T23, 2-(2-(cyclopropanesulfonamido)thiazol-4-yl)-N-(6-(pyrimidin-5-yl)pyridin-3-yl)acetamide], the IC50 was 0.1 to 1 µM. For `CC(C)(C(=O)Nc1ccc(-c2cncc(C#N)n2)cc1)c1csc(NS(=O)(=O)C2CC2)n1` [T154, N-(4-(6-cyanopyrazin-2-yl)phenyl)-2-(2-(cyclopropanesulfonamido)thiazol-4-yl)-2-methylpropanamide] the value was 0.1 to 1 µM; for `CCOc1cncc(-c2ccc(NC(=O)C(C)(C)c3csc(NS(=O)(=O)CC(C)C)n3)nc2)n1` [T295, N-(5-(6-ethoxypyrazin-2-yl)pyridin-2-yl)-2-methyl-2-(2-((2-methylpropyl)sulfonamido)thiazol-4-yl)propanamide], 0.1 to 1 µM.

With `O=C(Cc1csc(NS(=O)(=O)C2CC2)n1)Nc1ccc(-c2cncc(CO)c2)cc1` [T45, 2-(2-(cyclopropanesulfonamido)thiazol-4-yl)-N-(4-(5-(hydroxymethyl)pyridin-3-yl)phenyl)acetamide], the IC50 fell in the range of 0.1 to 1 µM. Consider `COc1cc(-c2cncc(Cl)c2)ccc1NC(=O)C(C)(C)c1csc(NS(=O)(=O)C2CC2)n1` [T256, N-(4-(5-chloropyridin-3-yl)-2-methoxyphenyl)-2-(2-(cyclopropanesulfonamido)thiazol-4-yl)-2-methylpropanamide], for which the IC50 is under 0.1 µM. For `Cc1cnc(C)c(-c2ccc(NC(=O)C(C)(C)c3csc(NS(=O)(=O)C4CC4)n3)cc2)n1` [T284, 2-(2-(cyclopropanesulfonamido)thiazol-4-yl)-N-(4-(3,6-dimethylpyrazin-2-yl)phenyl)-2-methylpropanamide] the value was 1 to 10 µM.

As to `CC(C)(C(=O)Nc1ccc(-c2cncc(S(C)(=O)=O)c2)cc1)c1csc(NS(=O)(=O)C2CC2)n1` [T49, 2-(2-(cyclopropanesulfonamido)thiazol-4-yl)-2-methyl-N-(4-(5-(methylsulfonyl)pyridin-3-yl)phenyl)propanamide], the IC50 fell in the range of 0.1 to 1 µM. For `CCC(CC)(C(=O)Nc1ccc(-c2cncc(C#N)n2)cc1)c1csc(NS(=O)(=O)C2CC2)n1` [T161, N-(4-(6-cyanopyrazin-2-yl)phenyl)-2-(2-(cyclopropanesulfonamido)thiazol-4-yl)-2-ethylbutanamide] the value was 0.1 to 1 µM and 1 to 10 µM; for `CC(C)(C(=O)Nc1ncc(-c2cncc(F)c2)cn1)c1csc(NS(=O)(=O)C2CC2)n1` [T293, 2-(2-(cyclopropanesulfonamido)thiazol-4-yl)-N-(5-(5-fluoropyridin-3-yl)pyrimidin-2-yl)-2-methylpropanamide], 0.1 to 1 µM. For `Cc1ccc(-c2ccc(NC(=O)Cc3csc(NS(=O)(=O)C4CC4)n3)cc2)cn1` [T101, 2-(2-(cyclopropanesulfonamido)thiazol-4-yl)-N-(4-(6-methylpyridin-3-yl)phenyl)acetamide] the value was 1 to 10 µM. With `COc1cncc(-c2ccc(NC(=O)C3(c4csc(NS(=O)(=O)C5CC5)n4)CCCC3)cc2)n1` [T130, 1-(2-(cyclopropanesulfonamido)thiazol-4-yl)-N-(4-(6-methoxypyrazin-2-yl)phenyl)cyclopentane-1-carboxamide], the IC50 was under 0.1 µM.

With `Cc1cncc(-c2ccc(NC(=O)C(C)(C)c3csc(NS(=O)(=O)C4CC4)n3)cc2)c1` [T30, 2-(2-(cyclopropanesulfonamido)thiazol-4-yl)-2-methyl-N-(4-(5-methylpyridin-3-yl)phenyl)propanamide], the IC50 was under 0.1 µM.
